# Test results: US20230348418A1, “ISOINDOLINONE COMPOUNDS” (Monte Rosa Therapeutics, Inc., priority 2021, published 2023)
# Target: T1, Full length wild-type cereblon CRBN (Homo sapiens, UniProt Q96SW2)
# T1 construct: Full length wild-type cereblon CRBN (80.0 nM, 10 μL) was incubated in assay buffer
# Assay: Fluorescence polarization (FP) assay, cereblon binding
# Settings: bounds stated in the text lists b2059-b2061; read-out: IC50 value
# From the text: Compound activity was monitored in a fluorescence polarization (FP) homogeneous assay using 1-[5-({2-[2-(2-{[2-(2,6-dioxopiperidin-3-yl)-1,3-dioxo-2,3-dihydro-1H-isoindol-4-yl]oxy}acetamido)ethoxy]ethyl}carbamoyl)pentyl]-3,3-dimethyl-2-[(1E,3E)-5-[(2E)-1,3,3-trimethyl-5-sulfo-2,3-dihydro-1H-indol-2-ylidene]penta-1,3-dien-1-yl]-3H-indol-1-ium-5-sulfonate as a fluorescent probe. Unless otherwise stated, all reagents were purchased from Sigma Aldrich. […] Full length wild-type cereblon CRBN (80.0 nM, 10 μL) was incubated in assay buffer containing 20 mM HEPES (pH 8.0), […], 0.5 mM TCEP and 0.05% Tween 20 in the presence or absence of compound (300 nL). Inhibitors were stored as 10 mM DMSO stocks in an inert environment (low humidity, dark, low oxygen, room temperature) using the Storage Pod System. […] Following incubation at room temperature for 30 min, the assay was initiated by dispensing the probe to a final concentration of […] (2.5 nL of a 20 μM stock) using the Echo E5XX. […] The FP signal was subsequently normalized to the no-compound control (i.e., DMSO). Analysis and IC50 values were derived using Dotmatics (Dotmatics UK) software.
# T1 sequence (Q96SW2 whole entry): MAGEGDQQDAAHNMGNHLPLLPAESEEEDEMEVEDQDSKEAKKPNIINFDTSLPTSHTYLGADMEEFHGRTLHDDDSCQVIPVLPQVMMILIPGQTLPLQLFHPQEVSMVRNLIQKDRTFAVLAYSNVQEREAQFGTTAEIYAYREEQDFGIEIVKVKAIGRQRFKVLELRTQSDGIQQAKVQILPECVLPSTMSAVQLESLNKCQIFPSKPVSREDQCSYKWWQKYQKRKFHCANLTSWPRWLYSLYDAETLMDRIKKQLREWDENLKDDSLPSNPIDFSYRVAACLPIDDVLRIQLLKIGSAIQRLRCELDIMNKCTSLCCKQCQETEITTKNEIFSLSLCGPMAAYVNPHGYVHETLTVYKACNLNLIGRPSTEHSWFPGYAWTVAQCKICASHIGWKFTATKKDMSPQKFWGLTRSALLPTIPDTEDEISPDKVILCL
row,IC50 [nM],SMILES
1,< 1700,O=C1CCC(N2Cc3ccc(COC(=O)Nc4ccc(C5CCC5)nc4)cc3C2=O)C(=O)N1 (stereo not drawn) [Compound 105]
2,< 1700,COc1cc(NC(=O)OCc2ccc3c(c2)C(=O)N(C2CCC(=O)NC2=O)C3)cnc1-c1ccccc1 (stereo not drawn) [Compound 90]
3,< 1700,Cc1c(F)cc(NC(=O)OCc2ccc3c(c2)C(=O)N(C2CCC(=O)NC2=O)C3)cc1CN1CCOCC1 (stereo not drawn) [Compound 41]
4,< 1700,Cc1cc(NC(=O)OCc2ccc3c(c2)C(=O)N(C2CCC(=O)NC2=O)C3)cnc1-c1ccccc1 (stereo not drawn) [Compound 88]
5,< 1100,"Cc1cc(C#N)cc(NC(=O)OCc2ccc3c(c2)C(=O)N(C2CCC(=O)NC2=O)C3)c1 (stereo not drawn) [Compound 112, (2-(2,6-dioxopiperidin-3-yl)-3-oxoisoindolin-5-yl)methyl (3-cyano-5-methylphenyl)carbamate]"
6,< 1100,Cc1c(Cl)cc(NC(=O)OCc2ccc3c(c2)C(=O)N(C2CCC(=O)NC2=O)C3)cc1OCC1CCN(C)C1 (stereo not drawn) [Compound 70]
7,< 1700,CC1(c2ccc(NC(=O)OCc3ccc4c(c3)C(=O)N(C3CCC(=O)NC3=O)C4)cc2)CC1 (stereo not drawn) [Compound 58]
8,< 1100,"CC(C)(C)c1ccc(NC(=O)OCc2ccc3c(c2)C(=O)N(C2CCC(=O)NC2=O)C3)nc1 (stereo not drawn) [Compound 131, (2-(2,6-dioxopiperidin-3-yl)-3-oxoisoindolin-5-yl)methyl (5-(tert-butyl)pyridin-2-yl)carbamate]"
9,< 1700,COc1cc(NC(=O)OCc2ccc3c(c2)C(=O)N(C2CCC(=O)NC2=O)C3)cnc1C (stereo not drawn) [Compound 51]

# Same assay, conditions: cereblon binding, class code; read-out: rFP IC50
row,IC50 [nM],SMILES
1,500 to 1100,O=C1CCC(N2Cc3ccc(COC(=O)Nc4ccc(C5CCC5)nc4)cc3C2=O)C(=O)N1 (stereo not drawn) [Compound 105]
2,1100 to 1700,COc1cc(NC(=O)OCc2ccc3c(c2)C(=O)N(C2CCC(=O)NC2=O)C3)cnc1-c1ccccc1 (stereo not drawn) [Compound 90]
3,500 to 1100,Cc1c(F)cc(NC(=O)OCc2ccc3c(c2)C(=O)N(C2CCC(=O)NC2=O)C3)cc1CN1CCOCC1 (stereo not drawn) [Compound 41]
4,500 to 1100,Cc1cc(NC(=O)OCc2ccc3c(c2)C(=O)N(C2CCC(=O)NC2=O)C3)cnc1-c1ccccc1 (stereo not drawn) [Compound 88]
5,500 to 1100,CC1(c2ccc(NC(=O)OCc3ccc4c(c3)C(=O)N(C3CCC(=O)NC3=O)C4)cc2)CC1 (stereo not drawn) [Compound 58]
6,500 to 1100,"CC(C)(C)c1ccc(NC(=O)OCc2ccc3c(c2)C(=O)N(C2CCC(=O)NC2=O)C3)nc1 (stereo not drawn) [Compound 131, (2-(2,6-dioxopiperidin-3-yl)-3-oxoisoindolin-5-yl)methyl (5-(tert-butyl)pyridin-2-yl)carbamate]"
7,500 to 1100,COc1cc(NC(=O)OCc2ccc3c(c2)C(=O)N(C2CCC(=O)NC2=O)C3)cnc1C (stereo not drawn) [Compound 51]

# Target: CRBN-DDB1 (Homo sapiens, UniProt Q96SW2)
# Assay: HTRF binding of compounds to CRBN
# Settings: not given
# Experimental: Compound activity was monitored in a Homogenous Time-Resolved Fluorescence (HTRF) assay using 1-[5-({2-[2-(2-{[2-(2,6-dioxopiperidin-3-yl)-1,3-dioxo-2,3-dihydro-1H-isoindol-4-yl]oxy}acetamido)ethoxy]ethyl}carbamoyl)pentyl]-3,3-dimethyl-2-[(1E,3E)-5-[(2E)-1,3,3-trimethyl-5-sulfo-2,3-dihydro-1H-indol-2-ylidene]penta-1,3-dien-1-yl]-3H-indol-1-ium-5-sulfonate as a fluorescent probe. […] Compounds were stored in dry, ambient temperatures at 10 mM. A 10-point, 1:3 dilution series was prepared from 10 mM stock concentrations in Echo-compatible LDV plates. 10 nL of each compound dilution series was dispensed into assays wells using an Echo 650 (Labcyte inc. USA). […] The assay was then allowed to incubate for 30 min at ambient temperature after transferring compound. […] Analysis and IC50 values were derived using KNIME analytics (KNIME Zurich) transformation and fitting within Collaborative Drug Discovery (Collaborative Drug Discovery USA). Ki was derived from the geometric mean of the IC50 values using the Cheng-Prustoff transformation.
# CRBN-DDB1, sequence (Q96SW2 whole entry): as above
# CRBN-DDB1, sequence (Q16531 whole entry partner): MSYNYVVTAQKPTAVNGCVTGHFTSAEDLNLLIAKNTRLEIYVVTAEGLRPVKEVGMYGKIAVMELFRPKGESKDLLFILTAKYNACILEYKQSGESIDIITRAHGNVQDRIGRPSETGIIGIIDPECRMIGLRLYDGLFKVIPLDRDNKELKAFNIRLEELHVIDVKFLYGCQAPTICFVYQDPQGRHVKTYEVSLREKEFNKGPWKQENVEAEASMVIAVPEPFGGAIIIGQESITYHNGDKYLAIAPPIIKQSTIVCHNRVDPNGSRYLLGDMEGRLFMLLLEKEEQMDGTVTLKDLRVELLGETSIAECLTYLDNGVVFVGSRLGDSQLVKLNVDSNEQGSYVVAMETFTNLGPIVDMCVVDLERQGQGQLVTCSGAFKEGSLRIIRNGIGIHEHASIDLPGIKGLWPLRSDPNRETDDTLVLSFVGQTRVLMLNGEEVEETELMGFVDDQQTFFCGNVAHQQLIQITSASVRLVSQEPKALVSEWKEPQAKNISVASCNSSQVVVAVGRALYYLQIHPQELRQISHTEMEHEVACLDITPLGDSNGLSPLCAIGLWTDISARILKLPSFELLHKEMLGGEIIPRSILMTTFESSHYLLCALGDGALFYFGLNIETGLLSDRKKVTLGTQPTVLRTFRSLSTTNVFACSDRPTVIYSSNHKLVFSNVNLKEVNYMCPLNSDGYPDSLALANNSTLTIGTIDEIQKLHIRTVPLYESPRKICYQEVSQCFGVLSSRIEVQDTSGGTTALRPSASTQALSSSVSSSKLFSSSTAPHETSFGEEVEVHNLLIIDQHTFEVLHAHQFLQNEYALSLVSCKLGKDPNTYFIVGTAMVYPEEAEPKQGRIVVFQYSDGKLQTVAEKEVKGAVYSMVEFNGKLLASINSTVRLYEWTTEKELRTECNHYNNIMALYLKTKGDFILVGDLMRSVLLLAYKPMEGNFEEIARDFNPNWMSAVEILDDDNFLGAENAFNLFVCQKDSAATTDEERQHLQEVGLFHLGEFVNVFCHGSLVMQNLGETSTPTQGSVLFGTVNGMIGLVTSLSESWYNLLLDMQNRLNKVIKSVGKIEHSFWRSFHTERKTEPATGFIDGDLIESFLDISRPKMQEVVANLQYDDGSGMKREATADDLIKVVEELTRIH
row,SMILES,IC50 [nM]
1,O=C1CCC(N2Cc3ccc(COC(=O)Nc4cccc5c4OCC5)cc3C2=O)C(=O)N1 (stereo not drawn) [Compound 173],100 to 1000
2,O=C1CCC(N2Cc3ccc(COC(=O)NC4CN(c5ccccc5)C4)cc3C2=O)C(=O)N1 (stereo not drawn) [Compound 167],< 100
3,Cc1cc2c(c(NC(=O)OCc3ccc4c(c3)C(=O)N(C3CCC(=O)NC3=O)C4)c1)OCC2 (stereo not drawn) [Compound 182],100 to 1000
4,O=C1CCC(N2Cc3ccc(COC(=O)NC45CC(N6CCCCC6)(C4)C5)cc3C2=O)C(=O)N1 (stereo not drawn) [Compound 198],100 to 1000
5,O=C1CCC(N2Cc3ccc(COC(=O)NC45CC(F)(C4)C5)cc3C2=O)C(=O)N1 (stereo not drawn) [Compound 190],100 to 1000
6,O=C1CCC(N2Cc3ccc(COC(=O)Nc4cc(Cl)cc5c4OCC5)cc3C2=O)C(=O)N1 (stereo not drawn) [Compound 189],< 100
7,CC(C)(C)c1ccc(F)c(NC(=O)OCc2ccc3c(c2)C(=O)N(C2CCC(=O)NC2=O)C3)c1 (stereo not drawn) [Compound 235],100 to 1000

# Same assay, conditions: read-out: HTRF Class (Cereblon binding, HTRF IC50)
row,SMILES,IC50 [nM]
1,"Cc1cc(F)c(NC(=O)OCc2ccc3c(c2)C(=O)N(C2CCC(=O)NC2=O)C3)c(F)c1 (stereo not drawn) [Compound 166, (2-(2,6-dioxopiperidin-3-yl)-3-oxoisoindolin-5-yl)methyl (2,6-difluoro-4-methylphenyl)carbamate]",< 100
2,"O=C1CCC(N2Cc3ccc(COC(=O)Nc4cc(OC(F)(F)F)c(F)cc4F)cc3C2=O)C(=O)N1 (stereo not drawn) [Compound 200, (2-(2,6-dioxopiperidin-3-yl)-3-oxoisoindolin-5-yl)methyl (2,4-difluoro-5-(trifluoromethoxy)phenyl)carbamate]",100 to 1000
3,"Cc1ccc(NC(=O)OCc2ccc3c(c2)C(=O)N(C2CCC(=O)NC2=O)C3)nc1Cl (stereo not drawn) [Compound 183, (2-(2,6-dioxopiperidin-3-yl)-3-oxoisoindolin-5-yl)methyl (6-chloro-5-methylpyridin-2-yl)carbamate]",100 to 1000
4,"CC(C)(C)c1cccc(NC(=O)OCc2ccc3c(c2)C(=O)N(C2CCC(=O)NC2=O)C3)n1 (stereo not drawn) [Compound 170, (2-(2,6-dioxopiperidin-3-yl)-3-oxoisoindolin-5-yl)methyl (6-(tert-butyl)pyridin-2-yl)carbamate]",100 to 1000
5,"CC(C)(C)[C@H]1C[C@H](NC(=O)OCc2ccc3c(c2)C(=O)N(C2CCC(=O)NC2=O)C3)C1 (stereo partly drawn) [Compound 185, trans-(2-(2,6-dioxopiperidin-3-yl)-3-oxoisoindolin-5-yl)methyl ((1s,3s)-3-(tert-butyl)cyclobutyl)carbamate]",100 to 1000
6,"O=C1CCC(N2Cc3ccc(COC(=O)Nc4cc(Cl)ccc4F)cc3C2=O)C(=O)N1 (stereo not drawn) [Compound 163, (2-(2,6-dioxopiperidin-3-yl)-3-oxoisoindolin-5-yl)methyl (5-chloro-2-fluorophenyl)carbamate]",100 to 1000

# Next, values leading:
row,IC50 [nM],SMILES
1,100 to 1000,"O=C1CCC(N2Cc3ccc(COC(=O)Nc4cccc(Cl)c4)cc3C2=O)C(=O)N1 (stereo not drawn) [Compound 239, (2-(2,6-dioxopiperidin-3-yl)-3-oxoisoindolin-5-yl)methyl (3-chlorophenyl)carbamate]"
2,100 to 1000,"CC(C)c1cccc(NC(=O)OCc2ccc3c(c2)C(=O)N(C2CCC(=O)NC2=O)C3)c1 (stereo not drawn) [Compound 217, (2-(2,6-dioxopiperidin-3-yl)-3-oxoisoindolin-5-yl)methyl (3-isopropylphenyl)carbamate]"
3,< 100,"C[C@@H]1CCCN1c1cnc(NC(=O)OCc2ccc3c(c2)C(=O)N(C2CCC(=O)NC2=O)C3)c(F)c1 (stereo partly drawn) [Compound 232, (2-(2,6-dioxopiperidin-3-yl)-3-oxoisoindolin-5-yl)methyl (3-fluoro-5-((R)-2-methylpyrrolidin-1-yl)pyridin-2-yl)carbamate]"
4,100 to 1000,"COC(=O)C12CC(NC(=O)OCc3ccc4c(c3)C(=O)N(C3CCC(=O)NC3=O)C4)(C1)C2 (stereo not drawn) [Compound 203, methyl 3-((((2-(2,6-dioxopiperidin-3-yl)-3-oxoisoindolin-5-yl)methoxy)carbonyl)amino)bicyclo[1.1.1]pentane-1-carboxylate]"
5,100 to 1000,"CC1(c2ccc(NC(=O)OCc3ccc4c(c3)C(=O)N(C3CCC(=O)NC3=O)C4)cc2F)COC1 (stereo not drawn) [Compound 240, (2-(2,6-dioxopiperidin-3-yl)-3-oxoisoindolin-5-yl)methyl (3-fluoro-4-(3-methyloxetan-3-yl)phenyl)carbamate]"
6,100 to 1000,"O=C1CCC(N2Cc3ccc(COC(=O)Nc4cccc(C5CC5)c4)cc3C2=O)C(=O)N1 (stereo not drawn) [Compound 216, (2-(2,6-dioxopiperidin-3-yl)-3-oxoisoindolin-5-yl)methyl (3-cyclopropylphenyl)carbamate]"
7,< 100,"Cc1cc(NC(=O)OCc2ccc3c(c2)C(=O)N(C2CCC(=O)NC2=O)C3)ncc1N1CCC[C@H]1C (stereo partly drawn) [Compound 237, (2-(2,6-dioxopiperidin-3-yl)-3-oxoisoindolin-5-yl)methyl (4-methyl-5-((R)-2-methylpyrrolidin-1-yl)pyridin-2-yl)carbamate]"
8,< 100,"O=C1CCC(N2Cc3ccc(COC(=O)Nc4cc(F)c5c(c4)CCO5)cc3C2=O)C(=O)N1 (stereo not drawn) [Compound 212, (2-(2,6-dioxopiperidin-3-yl)-3-oxoisoindolin-5-yl)methyl (7-fluoro-2,3-dihydrobenzofuran-5-yl)carbamate]"
9,100 to 1000,"O=C1CCC(N2Cc3ccc(COC(=O)Nc4cc(OC(F)F)c(F)cn4)cc3C2=O)C(=O)N1 (stereo not drawn) [Compound 227, (2-(2,6-dioxopiperidin-3-yl)-3-oxoisoindolin-5-yl)methyl (4-(difluoromethoxy)-5-fluoropyridin-2-yl)carbamate]"
10,< 100,"O=C1CCC(N2Cc3ccc(COC(=O)NC45C6C7C4C4C5C6C74c4ccccc4)cc3C2=O)C(=O)N1 (stereo not drawn) [Compound 225, (2-(2,6-dioxopiperidin-3-yl)-3-oxoisoindolin-5-yl)methyl (4-phenylcuban-1-yl)carbamate]"
11,< 100,"CC1(c2ccc(NC(=O)OCc3ccc4c(c3)C(=O)N(C3CCC(=O)NC3=O)C4)cc2Cl)COC1 (stereo not drawn) [Compound 236, (2-(2,6-dioxopiperidin-3-yl)-3-oxoisoindolin-5-yl)methyl (3-chloro-4-(3-methyloxetan-3-yl)phenyl)carbamate]"
12,100 to 1000,"O=C1CCC(N2Cc3ccc(COC(=O)NC45CC(N6CCOCC6)(C4)C5)cc3C2=O)C(=O)N1 (stereo not drawn) [Compound 215, (2-(2,6-dioxopiperidin-3-yl)-3-oxoisoindolin-5-yl)methyl (3-morpholinobicyclo[1.1.1]pentan-1-yl)carbamate]"
13,100 to 1000,"CCCOc1ccc(F)c(NC(=O)OCc2ccc3c(c2)C(=O)N(C2CCC(=O)NC2=O)C3)c1 (stereo not drawn) [Compound 226, (2-(2,6-dioxopiperidin-3-yl)-3-oxoisoindolin-5-yl)methyl (2-fluoro-5-propoxyphenyl)carbamate]"
